According to US20130123227A1, “NOVEL ORGANO-PALLADIUM COMPLEXES” (priority 2010, published 2013):

Assay: Seizure incidence in mice
Format: in vivo
Excerpt: The original Pd-lipoic acid complex provides a structure in which the palladium is safely sequestered, and which is also active in the lipoic acid binding site in mitochondrial complex I, thereby coupling to enzymatic charge transfer. […] To eliminate seizure activity, the G10 stage of the synthetic complex was further investigated and combined with various substances, until there were no seizures. This was ultimately achieved by complexing with zinc-amino acid complexes.

**Q.** Which seizures does the source give for `C[C@@H](O)[C@H](N)C(=O)O.C[C@@H](O)[C@H](N)C(=O)O.[Zn]` [Zn-bis(threonine)] here?
**A.** The seizures was “modulates and inhibits the seizure potentials”.
